Data: patent US6200985A, “Rapamycin derivatives” (Novartis AG, priority 1995, dated 2001)

Assays:
[1] = system: Balb/c spleen cells; assay: Mixed lymphocyte reaction (MLR), murine; format: cell-based, mouse; conditions: inhibition of Balb/c spleen cell proliferation, 5 days co-incubation with irradiated CBA spleen cells; relative to rapamycin
Description: 1. Mixed lymphocyte reaction (MLR)
The Mixed Lymphocyte Reaction was originally developed in connection with allografts, to assess the tissue compatibility between potential organ donors and recipients, and is one of the best established models of immune reaction in vitro. […] The irradiated allogeneic cells induce a proliferative response in the Balb/c spleen cells which can be measured by labeled precursor incorporation into the DNA. […] The inhibitory capacity of the test sample may be compared to rapamycin and expressed as a relative IC50 (i.e. IC50 test sample/IC50 rapamycin).

[2] = system: interleukin-6 (IL-6)-dependent mouse hybridoma cell line; assay: IL-6 mediated proliferation (IL-6 PROL); format: cell-based; conditions: inhibition of IL-6 dependent hybridoma proliferation, (3-H)thymidine incorporation; relative to rapamycin
Experimental: 2. IL-6 mediated proliferation (IL-6 PROL)
The capacity of the Compounds of formula I to interfere with growth factor, associated signalling pathways is assessed using an interleukin-6 (IL-6)-dependent mouse hybridoma cell line. The assay is performed in 96-well microtiter plates. […] Following a 66 hour incubation in the absence or presence of a test sample, cells are pulsed with 1 μCi (3-H)thymidine/well for another 6 hours, harvested and counted by liquid scintillation. (3-H)thymidine incorporation into DNA correlates with the increase in cell number and is thus a measure of cell proliferation. […] The inhibitory capacity of the test sample may be compared to rapamycin and expressed as a relative IC50 (i.e. test sample/IC50 rapamycin).

[3] = target: T1, recombinant human macrophilin-12 (FKBP-12) (Homo sapiens, UniProt P62942); assay: Macrophilin binding assay (MBA), competitive binding against immobilized FK-506; conditions: inhibition of biot-MAP binding to immobilized FK-506
T1 construct: biotin (label)
T1 sequence (P62942 whole entry): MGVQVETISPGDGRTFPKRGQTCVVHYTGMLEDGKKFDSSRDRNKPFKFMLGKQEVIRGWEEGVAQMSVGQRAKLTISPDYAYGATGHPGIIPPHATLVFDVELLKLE
Description: 3. Macrophilin binding assay (MBA)
Rapamycin and the structurally related immunosuppressant, FK-506, are both known to bind in vivo to macrophilin-12 (also known as FK-506 binding protein or FKBP-12), and this binding is thought to be related to the immunosuppressive activity of these compounds. […] In this assay, FK-506 coupled to BSA is used to coat microtiter wells. Biotinylated recombinant human macrophilin-12 (biot-MAP) is allowed to bind in the presence or absence of a test sample to the immobilized FK-506. After washing (to remove non-specifically bound macrophilin), bound biot-MAP is assessed by incubation with a streptavidin-alkaline phosphatase conjugate, followed by washing and subsequent addition of p-nitrophenyl phosphate as a substrate. The read-out is the OD at 405 nm. Binding of a test sample to biot-MAP results in a decrease in the amount of biot-MAP bound to the FK-506 and thus in a decrease in the OD405. A dilution series of the test sample allows determination of the concentration resulting in 50% inhibition of the biot-MAP binding to the immobilized FK-506 (IC50). The inhibitory capacity of a test sample is compared to the IC50 of free FK506 as a standard and expressed as a relative IC50 (i.e., IC50 test sample/IC50 -free FK506).

[4] = system: rat kidney allograft; assay: Chronic allograft rejection, rat kidney allograft model; format: in vivo; conditions: per os, 0.5 to 2.5 mg/kg, 69-72 days starting day 53-64 after transplantation
Experimental: 10. Chronic Allogaft Rejection
The kidney of a male DA (RT1^a) rat is orthotopically transplanted into a male Lewis (RT1^l) recipient. In total 24 animals are transplanted. All animals are treated with cyclosporine A at 7.5 mg/kg/day per os for 14 days starting on the day of transplantation, to prevent acute cellular rejection. Contralateral nephrectomy is not performed. Each experimental group treated with a distinct dose of a compound of formula I or placebo comprises six animals.
Starting at day 53-64 after transplantation, the recipient animals are treated per os for another 69-72 days with a compound of formula I or receive placebo. At 14 days after transplantation animals are subjected to graft assessment by magnetic resonance imaging (MRI) with perfusion measurement of the kidneys (with comparison of the grafted kidney and the own contralateral kidney). This is repeated at days 53-64 after transplantation and at the end of the experiment. The animals are then autopsied. Rejection parameters such as MRI score, relative perfusion rate of the grafted kidney and histologic score of the kidney allograft for cellular rejection and vessel changes are determined and statistically analyzed.

[5] = system: myointimal proliferation in balloon-injured carotid artery; assay: Angioplasty (balloon catheterization of the carotid artery); format: in vivo; conditions: rat, per os, daily dose 0.5 to 2.5 mg/kg, day -3 to day +14
Experimental: Under Isofluorane anaesthesia, a Fogarty 2F catheter is introduced into the left common carotid artery via the external carotid and inflated (distension=10 μl H2 O). The inflated balloon is withdrawn along the length of the common carotid three times, the latter two times whilst twisting gently to obtain a uniform de-endothelialization. The cathether is then removed, a ligature placed around the external carotid to prevent bleeding and the animals allowed to recover.
2 groups of 12 RoRo rats (400 g, approximately 24 weeks old) are used for the study: one control group and one group receiving the compound to be tested. The rats are fully randomized during all handling, experimental procedures and analysis.
The compound to be tested is administered p.o. (gavage) starting 3 days before balloon injury (day -3) until the end of the study, 14 days after balloon injury (day +14). Rats are kept in individual cages and allowed food and water ad libidum. […]
Sections 1-2 μm thick are cut from the middle section of each carotid with a hard metal knife on a rotary microtome and stained for 2 min with Giemse-stain. About 5 sections from each carotid are thus prepared and the cross-sectional areal of the media, neointima and the lumen morphometrically evaluated by means of an image analysis system (MCID, Toronto, Canada).

Row | relative IC50 (IC50 test sample/IC50 free FK506) [3] | Structure (SMILES) | relative IC50 (IC50 test sample/IC50 rapamycin) [1] | relative IC50 (test sample/IC50 rapamycin) [2] | rejection parameters (MRI score, relative perfusion rate of grafted kidney, histologic score) [4] | myointimal proliferation [5]
1 | 2.8 | CCC#CCO[C@H]1C[C@@H]2CC[C@@H](C)[C@@](O)(O2)C(=O)C(=O)N2CCCC[C@H]2C(=O)O[C@H]([C@H](C)C[C@@H]2CC[C@@H](O)[C@H](OC)C2)C[C@H](O)[C@H](C)/C=C(\C)[C@@H](O)[C@@H](OC)C(=O)[C@H](C)C[C@H](C)/C=C/C=C/C=C/1C [Example 2, 16-pent-2-ynyloxy-32(S)-dihydro rapamycin] | 0.08 | 0.09 | reduction in all above mentioned rejection parameters | inhibit myointimal proliferation
2 | 25 | CO[C@H]1C[C@@H]2CC[C@@H](C)[C@@](O)(O2)C(=O)C(=O)N2CCCC[C@H]2C(=O)O[C@H]([C@H](C)C[C@@H]2CC[C@@H](OCCO)[C@H](OC)C2)C[C@H](O)[C@H](C)/C=C(\C)[C@@H](O)[C@@H](OC)C(=O)[C@H](C)C[C@H](C)/C=C/C=C/C=C/1C [Example 5, (32S)-dihydro40-(2-hydroxy)ethyl-rapamycin] | – | – | – | –

Row | Structure (SMILES) | relative IC50 (IC50 test sample/IC50 free FK506) [3] | relative IC50 (IC50 test sample/IC50 rapamycin) [1] | relative IC50 (test sample/IC50 rapamycin) [2] | rejection parameters (MRI score, relative perfusion rate of grafted kidney, histologic score) [4] | myointimal proliferation [5]
3 | CO[C@H]1C[C@@H]2CC[C@@H](C)[C@@](O)(O2)C(=O)C(=O)N2CCCC[C@H]2C(=O)O[C@H]([C@H](C)C[C@@H]2CC[C@@H](O)[C@H](OC)C2)CC[C@H](C)/C=C(\C)[C@@H](O)[C@@H](OC)C(=O)[C@H](C)C[C@H](C)/C=C/C=C/C=C/1C [Example 1, 32-Deoxorapamycin] | 1 | 0.3 | 0.2 | reduction in all above mentioned rejection parameters | inhibit myointimal proliferation
